Source: ChEMBL document CHEMBL1150852, “Coumarins isolated from Angelica gigas inhibit acetylcholinesterase: structure-activity relationships” (J Nat Prod, 2001)

target: Acetylcholinesterase (Homo sapiens, UniProt P22303); experiment: Inhibition of AChE by spectrophotometry
Sequence (P22303 whole entry): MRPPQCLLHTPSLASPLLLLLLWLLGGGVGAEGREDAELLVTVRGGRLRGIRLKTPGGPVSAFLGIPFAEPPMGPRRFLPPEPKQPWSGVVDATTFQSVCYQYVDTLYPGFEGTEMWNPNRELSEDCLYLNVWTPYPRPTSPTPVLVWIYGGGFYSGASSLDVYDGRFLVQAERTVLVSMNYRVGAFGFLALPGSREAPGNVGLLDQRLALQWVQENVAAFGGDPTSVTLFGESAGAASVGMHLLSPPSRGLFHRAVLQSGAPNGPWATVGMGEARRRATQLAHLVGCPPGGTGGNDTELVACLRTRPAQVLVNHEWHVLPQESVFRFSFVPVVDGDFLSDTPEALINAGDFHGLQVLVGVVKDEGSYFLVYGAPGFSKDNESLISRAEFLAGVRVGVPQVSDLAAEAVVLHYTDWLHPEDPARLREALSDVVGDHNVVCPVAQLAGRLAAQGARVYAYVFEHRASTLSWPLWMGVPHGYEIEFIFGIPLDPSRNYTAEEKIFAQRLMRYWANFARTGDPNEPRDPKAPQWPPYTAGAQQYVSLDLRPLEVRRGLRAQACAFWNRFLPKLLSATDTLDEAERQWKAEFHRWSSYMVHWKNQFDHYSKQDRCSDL

SMILES	IC50 [µM]
C=C(C)[C@H](O)Cc1cc2ccc(=O)oc2cc1O	130
COc1cc(OCC=C(C)C)c2ccc(=O)oc2c1	240
CC(C)=CC(=O)O[C@H]1Cc2cc3ccc(=O)oc3cc2OC1(C)C [DECURSIN]	390
CC(C)=CCc1cc2ccc(=O)oc2cc1O [DEMETHYLSUBEROSIN]	2400
CC(C)=CCOc1c2ccoc2cc2oc(=O)ccc12 [ISOIMPERATORIN]	69
CC(C)(O)[C@@H]1Cc2cc3ccc(=O)oc3cc2O1 [MARMESIN]	67
COc1c2occc2cc2ccc(=O)oc12 [METHOXSALEN]	54
CC(C)(O[C@@H]1O[C@H](CO)[C@@H](O)[C@H](O)[C@H]1O)[C@H]1Cc2cc3ccc(=O)oc3cc2O1 [NODAKENIN]	68
CC(C)(O)C(=O)Cc1cc2ccc(=O)oc2cc1O [PEUCEDANONE]	180
CC1(C)C=Cc2cc3ccc(=O)oc3cc2O1 [XANTHYLETIN]	150
